Measurements reported in ChEMBL document CHEMBL1240330, “Splicing factor SF3b as a target of the antitumor natural product pladienolide” (Nat Chem Biol, 2007).

Legend:
[1] = biological target: Splicing factor 3B subunit 1 / PHD finger-like domain-containing protein 5A (Homo sapiens, UniProt O75533+Q7RTV0); assay: (§1) Inhibition of SAP130 in VEGF-stimulated human U251 cells by PLAP reporter gene assay; type: cell-based, U-251; settings: u-251
[2] = biological target: T1, Splicing factor 3B subunit 3 (Homo sapiens) (UniProt Q15393); assay: Displacement of [3H]probe from SAP130 in human WiDr cell immunoprecipitate sample assessed as radioactive intensity at 10 uM after 1 hr by scintillation counting
T1 sequence (whole entry): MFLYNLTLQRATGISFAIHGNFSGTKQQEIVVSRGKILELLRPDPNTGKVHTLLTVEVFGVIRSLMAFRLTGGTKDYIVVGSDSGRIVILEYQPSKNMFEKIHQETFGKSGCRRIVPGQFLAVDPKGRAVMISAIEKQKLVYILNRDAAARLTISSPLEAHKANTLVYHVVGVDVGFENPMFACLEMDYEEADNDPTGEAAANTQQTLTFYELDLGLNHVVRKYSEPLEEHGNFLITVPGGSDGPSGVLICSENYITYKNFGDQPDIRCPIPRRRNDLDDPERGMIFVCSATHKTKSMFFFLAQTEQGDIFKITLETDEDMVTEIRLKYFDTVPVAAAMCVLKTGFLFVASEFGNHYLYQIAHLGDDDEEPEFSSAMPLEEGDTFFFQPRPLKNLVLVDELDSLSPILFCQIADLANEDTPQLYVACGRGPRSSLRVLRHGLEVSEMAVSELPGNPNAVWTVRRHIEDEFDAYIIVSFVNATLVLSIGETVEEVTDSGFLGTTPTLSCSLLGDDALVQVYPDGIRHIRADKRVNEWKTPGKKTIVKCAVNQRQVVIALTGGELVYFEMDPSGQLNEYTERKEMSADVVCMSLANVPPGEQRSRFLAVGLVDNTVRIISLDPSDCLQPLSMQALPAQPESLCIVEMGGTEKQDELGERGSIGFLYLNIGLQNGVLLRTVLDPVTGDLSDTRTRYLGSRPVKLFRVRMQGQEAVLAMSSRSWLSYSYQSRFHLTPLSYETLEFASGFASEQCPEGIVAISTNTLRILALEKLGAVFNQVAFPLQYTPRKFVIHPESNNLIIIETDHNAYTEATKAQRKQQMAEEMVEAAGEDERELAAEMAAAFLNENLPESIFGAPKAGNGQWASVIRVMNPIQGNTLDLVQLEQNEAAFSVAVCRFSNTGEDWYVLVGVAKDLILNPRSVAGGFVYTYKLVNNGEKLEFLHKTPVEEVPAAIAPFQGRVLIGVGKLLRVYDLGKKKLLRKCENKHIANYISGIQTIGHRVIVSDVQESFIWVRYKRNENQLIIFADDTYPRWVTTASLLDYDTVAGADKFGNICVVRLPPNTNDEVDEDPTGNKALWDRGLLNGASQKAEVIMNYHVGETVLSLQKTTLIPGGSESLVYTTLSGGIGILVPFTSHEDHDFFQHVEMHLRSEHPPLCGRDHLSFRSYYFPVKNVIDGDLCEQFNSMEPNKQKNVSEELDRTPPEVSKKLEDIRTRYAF

[3] = biological target: T2, Splicing factor 3B subunit 3 (Homo sapiens, UniProt Q15393); assay: as §1; type: cell-based, U-251
T2 sequence (Q15393 whole entry): T1 sequence (whole entry)

Sequence of Splicing factor 3B subunit 1 / PHD finger-like domain-containing protein 5A (O75533 whole entry, the tested form may be a part): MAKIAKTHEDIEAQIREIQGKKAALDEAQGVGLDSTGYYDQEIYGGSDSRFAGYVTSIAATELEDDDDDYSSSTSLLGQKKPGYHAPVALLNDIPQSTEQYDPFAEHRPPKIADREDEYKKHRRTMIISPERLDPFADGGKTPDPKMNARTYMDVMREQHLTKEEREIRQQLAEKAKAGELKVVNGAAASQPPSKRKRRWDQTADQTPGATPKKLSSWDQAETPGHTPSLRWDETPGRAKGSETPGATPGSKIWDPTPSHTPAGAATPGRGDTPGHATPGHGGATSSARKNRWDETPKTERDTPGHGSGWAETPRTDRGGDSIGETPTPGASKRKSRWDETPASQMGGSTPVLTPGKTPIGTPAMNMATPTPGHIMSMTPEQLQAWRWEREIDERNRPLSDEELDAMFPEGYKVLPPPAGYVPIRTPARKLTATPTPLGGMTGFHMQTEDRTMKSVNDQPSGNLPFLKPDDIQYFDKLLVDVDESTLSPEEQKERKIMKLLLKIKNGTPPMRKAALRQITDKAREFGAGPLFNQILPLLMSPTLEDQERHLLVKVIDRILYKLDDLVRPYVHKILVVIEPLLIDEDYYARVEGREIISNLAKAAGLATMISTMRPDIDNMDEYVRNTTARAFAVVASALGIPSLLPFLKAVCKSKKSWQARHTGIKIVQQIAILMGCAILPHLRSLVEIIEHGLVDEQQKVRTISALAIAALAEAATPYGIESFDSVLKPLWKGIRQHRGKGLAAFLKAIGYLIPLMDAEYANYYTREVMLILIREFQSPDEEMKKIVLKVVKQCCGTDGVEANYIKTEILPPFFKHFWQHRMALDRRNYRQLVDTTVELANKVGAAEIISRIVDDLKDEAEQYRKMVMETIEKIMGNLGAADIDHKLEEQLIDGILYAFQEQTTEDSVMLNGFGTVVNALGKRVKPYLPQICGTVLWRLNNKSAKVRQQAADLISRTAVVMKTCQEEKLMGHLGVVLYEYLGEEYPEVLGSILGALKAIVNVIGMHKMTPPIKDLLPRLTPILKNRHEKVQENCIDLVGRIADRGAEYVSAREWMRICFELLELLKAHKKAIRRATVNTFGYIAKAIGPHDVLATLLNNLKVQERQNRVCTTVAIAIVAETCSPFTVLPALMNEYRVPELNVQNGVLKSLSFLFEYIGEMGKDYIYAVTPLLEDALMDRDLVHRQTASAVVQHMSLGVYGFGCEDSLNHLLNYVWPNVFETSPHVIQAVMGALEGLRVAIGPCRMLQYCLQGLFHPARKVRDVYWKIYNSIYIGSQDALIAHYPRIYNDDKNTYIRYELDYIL
Sequence of Splicing factor 3B subunit 1 / PHD finger-like domain-containing protein 5A (Q7RTV0 2-110 limits assumed): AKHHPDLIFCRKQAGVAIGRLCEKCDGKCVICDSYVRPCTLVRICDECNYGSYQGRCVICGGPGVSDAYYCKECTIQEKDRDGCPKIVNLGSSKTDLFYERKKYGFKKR

IC50 [1] [nM]	Activity [2] [%]	IC50 [3] [nM]	SMILES
3480	< 50	–	CC(=O)N[C@@H](CSC(=O)[C@]1([C@@H](O)C(C)C)NC(=O)[C@H](C)[C@@H]1O)C(=O)O [LACTACYSTIN]
13.8	–	–	C=CC[C@@H]1/C=C(\C)C[C@H](C)C[C@H](OC)[C@H]2O[C@@](O)(C(=O)C(=O)N3CCCC[C@H]3C(=O)O[C@H](/C(C)=C/[C@@H]3CC[C@@H](O)[C@H](OC)C3)[C@H](C)[C@@H](O)CC1=O)[C@H](C)C[C@@H]2OC [TACROLIMUS ANHYDROUS]
–	–	611	CC(/C=C/C(=O)NO)=C\[C@@H](C)C(=O)c1ccc(N(C)C)cc1 [TRICHOSTATIN]
